Values quoted from earlier work as cited in patent US8097707B2, “Compositions and processes for preparing 13-deoxy-anthracyclines” (priority 2004, dated 2012).

Conditions: test systems where doxorubicin is not metabolized appreciably to the 13-dihydro alcohol metabolite (doxorubicinol)

For `COc1cccc2c1C(=O)c1c(O)c3c(c(O)c1C2=O)C[C@@](O)(C(=O)CO)C[C@@H]3O[C@H]1C[C@H](N)[C@H](O)[C@H](C)O1` [doxorubicin], the cardiotoxic effects is given as “no significant cardiotoxic effects”.
